From patent US8921082B2, “Method for producing xylitol from lignocellulosic hydrolysates without detoxification” (priority 2009, dated 2014)

System: Candida sp. strain
Assay: Tolerance of the strain Candida sp. to furfural (xylose fermentation with furfural added)
Type: cell-based
Protocol: The fermentation medium contained 97 g/L sterilized synthetic xylose solution with furfural in a concentration range of 1-3 g/L added. The fermentation temperature is controlled at 30° C., the agitation of the incubator is maintained at 150 rpm, and the ratio of the inocula size of the culture and the volume of the fermentation medium is 1:6 (v/v).

O=Cc1ccco1 [furfural]
tolerance of the strain to furfural (97 g/L synthetic xylose solution, furfural 1-3 g/L added, 30° C., 150 rpm): higher than 3 g/L
xylitol yield (furfural 1-3 g/L in 97 g/L synthetic xylose solution): higher than 0.7 g/g
xylose fermentation capacity of the strain (furfural 3 g/L, 97 g/L synthetic xylose solution, compared with no furfural): the same as that without furfural
